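Growth conditions: 96-well plates. Treatment: test compound, 48 hours, 5 concentrations. Analysis: linear interpolation between bracketing concentrations; unreached endpoints set to highest concentration. GI50 marks 50% less growth.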 Active and inactive are the calls of the source. Rule as the data show it: active = GI50 up to about 1.1 µM and inactive = higher.
Experiments:
Test in all cases: NCI anticancer screen, dose series, 48 h
[1] = test system: A549
[2] = test system: CCRF-CEM
[3] = test system: HCC 2998
[4] = test system: HCT-116
[5] = test system: HCT-15
[6] = test system: IGROV-1
[7] = test system: NCI-H460
[8] = test system: NCI-H522
[9] = test system: OVCAR-3
[10] = test system: RXF 393
[11] = test system: SF-268
[12] = test system: SF-295
[13] = test system: SF-539
[14] = test system: SNB-19
[15] = test system: SW-620
[16] = test system: U-251
[17] = test system: UACC-62
[18] = test system: UO-31
[19] = test system: HL-60
[20] = test system: SK-MEL-28

Measured: GI50

COc1cccc(C2CC(=O)c3cc(N4CCCC4)ccc3N2)c1 (stereo not drawn)
0.0335 µM: [5]
active: [1] 0.036 µM | [2] 0.0407 µM | [3] 0.0475 µM | [4] 0.0251 µM | [6] 0.045 µM | [7] 0.0402 µM | [8] 0.0177 µM | [9] 0.0344 µM | [10] 0.0177 µM | [11] 0.0692 µM | [12] 0.0358 µM | [13] 0.0272 µM | [14] 0.0296 µM | [15] 0.0243 µM | [16] 0.0248 µM | [17] 0.0449 µM | [18] 0.0735 µM

Cc1c(OCc2ccccc2)c(=O)ccn1CCc1c[nH]c2ccccc12
inactive: [1] 36.6 µM | [2] 40.7 µM | [4] 38.3 µM | [6] 26.6 µM | [7] 33.7 µM | [8] 21.3 µM | [9] 18.5 µM | [11] 19.2 µM | [12] 56.4 µM | [13] 43.4 µM | [14] 32.7 µM | [15] 36.1 µM | [16] 29.6 µM | [17] 27.4 µM | [18] 43.1 µM
74.8 µM: [5]

O=C1C2Cc3ccccc3CN2C(=O)N1CN1CCCCC1 (stereo not drawn)
43.6 µM: [5]
inactive: [1] > 100 µM | [2] 43.4 µM | [3] > 100 µM | [19] 26.6 µM | [6] > 100 µM | [7] > 100 µM | [8] > 100 µM | [9] > 100 µM | [11] > 100 µM | [12] > 100 µM | [13] > 100 µM | [20] > 100 µM | [14] > 100 µM | [15] 55.6 µM | [16] > 100 µM | [17] 78 µM | [18] > 100 µM

O=C(N/N=C/C=C/c1ccc([N+](=O)[O-])o1)c1ccc(Br)s1
inactive: [1] 82.8 µM | [2] 9.2 µM | [4] 3.48 µM | [19] 34.1 µM | [6] 6.76 µM | [7] 42.7 µM | [9] 16.1 µM | [10] 15.6 µM | [11] 28.8 µM | [12] > 100 µM | [13] 26.8 µM | [20] 22.4 µM | [14] 24 µM | [15] 16.1 µM | [16] 28.1 µM | [17] 23.2 µM | [18] 21 µM
13.2 µM: [5]

COc1cc2c(cc1OC)-c1c(cnn1C1OC(COC(C)=O)C(OC(C)=O)C(OC(C)=O)C1OC(C)=O)CC2 (stereo not drawn)
> 100 µM: [5]
inactive: [1] > 100 µM | [2] 28.6 µM | [4] > 100 µM | [19] 11 µM | [6] > 100 µM | [7] > 100 µM | [8] 18.7 µM | [9] > 88.1 µM | [11] > 100 µM | [12] > 100 µM | [13] > 100 µM | [20] > 100 µM | [14] > 100 µM | [15] > 60.7 µM | [16] 34.1 µM | [17] > 100 µM | [18] 55.7 µM

CCOC(=O)C[C@@H]1C2(C=C[C@@]13CO3)OCC(C)(C)CO2
> 100 µM: [5]
inactive: [1] > 100 µM | [2] > 100 µM | [3] > 100 µM | [4] > 100 µM | [19] > 100 µM | [6] > 100 µM | [7] > 100 µM | [9] > 100 µM | [10] > 100 µM | [11] > 100 µM | [12] > 100 µM | [13] > 100 µM | [20] > 100 µM | [15] > 100 µM | [16] > 100 µM | [17] > 100 µM | [18] > 100 µM

CC(=O)OC(C(=O)O)C(OC(C)=O)C(OC(C)=O)C(OC(C)=O)C(=O)O (stereo not drawn)
inactive: [1] > 100 µM | [2] > 100 µM | [4] > 100 µM | [19] > 100 µM | [6] > 100 µM | [7] > 100 µM | [8] > 100 µM | [9] > 100 µM | [11] > 100 µM | [12] > 100 µM | [13] > 100 µM | [20] > 100 µM | [14] > 100 µM | [15] > 100 µM | [16] > 100 µM | [17] > 100 µM | [18] > 100 µM
> 100 µM: [5]

COc1ccc(C2C(C(=O)O)=C(COC(C)=O)Oc3cc4c(cc32)OCO4)cc1 (stereo not drawn)
> 100 µM: [5]
inactive: [1] > 100 µM | [2] > 100 µM | [4] > 100 µM | [19] > 100 µM | [6] > 100 µM | [7] > 100 µM | [9] > 100 µM | [10] > 100 µM | [12] > 100 µM | [20] > 100 µM | [14] > 100 µM | [15] > 100 µM | [16] > 100 µM | [17] > 100 µM | [18] > 100 µM

COC(=O)c1ccc(NCC2=C(Br)C(=O)C=CC2=O)cc1Cl
inactive: [1] > 100 µM | [2] > 100 µM | [3] 42.6 µM | [4] 18 µM | [19] 3.68 µM | [6] 15.5 µM | [7] 17.2 µM | [8] 6.43 µM | [9] 13.9 µM | [11] 16.8 µM | [12] 40.1 µM | [13] 16.8 µM | [20] 18.8 µM | [14] > 100 µM | [15] 16 µM | [16] 22.8 µM | [17] 18.8 µM | [18] 16.4 µM
15.8 µM: [5]

C/C([O-])=C(/c1nc(-c2ccc([N+](=O)[O-])o2)no1)[n+]1cc(C)ccc1C
7.03 µM: [5]
inactive: [1] 15 µM | [2] 1.53 µM | [3] 13 µM | [4] 6.25 µM | [6] 29 µM | [7] 4.62 µM | [8] 3.57 µM | [9] 19.6 µM | [10] 18.7 µM | [11] 20.3 µM | [12] 11.7 µM | [13] 4.99 µM | [20] 12.7 µM | [14] 26.7 µM | [15] 5.31 µM | [16] 8.11 µM | [17] 7.21 µM | [18] 21.7 µM

COC(=O)C1=COC2OC3/C(=C\c4ccc(O)c(OC)c4)C(=O)OC34C=CC1C24 (stereo not drawn)
14.6 µM: [5]
inactive: [1] 17.1 µM | [2] 23.2 µM | [3] 10.8 µM | [4] 19 µM | [19] 9.18 µM | [6] 24.4 µM | [7] 17.9 µM | [8] 15.2 µM | [9] 14.9 µM | [11] 19.5 µM | [12] 17.2 µM | [13] 17.4 µM | [20] 18.6 µM | [14] 19.6 µM | [15] 20 µM | [16] 15.2 µM | [17] 19.6 µM | [18] 14.4 µM

CCCCOP1(=O)C=CC(Cl)=C(C)C1 (stereo not drawn)
13.1 µM: [5]
inactive: [1] > 100 µM | [2] 4.11 µM | [3] > 10 µM | [4] 21.2 µM | [19] 16.1 µM | [7] 29.8 µM | [8] > 10 µM | [9] 24.7 µM | [11] 28.1 µM | [12] 18.2 µM | [13] 18.5 µM | [20] 16.3 µM | [14] 51.9 µM | [15] 20.4 µM | [16] > 10 µM | [17] 22.3 µM | [18] 41.8 µM

CCOC(=O)c1c(-c2ccccc2)c(C)cn1C
> 10 µM: [5]
inactive: [1] > 10 µM | [2] > 10 µM | [4] > 10 µM | [6] > 10 µM | [7] > 10 µM | [8] > 10 µM | [9] > 10 µM | [10] > 10 µM | [11] > 10 µM | [12] > 10 µM | [13] > 10 µM | [14] > 10 µM | [16] > 10 µM | [17] > 10 µM | [18] > 10 µM

CCOC(=O)c1ccc(N[C@@H]2c3cc4c(cc3C(c3cc(OC)c(O)c(OC)c3)[C@H]3C(=O)OCC32)OCO4)cc1 (stereo partly drawn)
active: [1] 0.0413 µM | [2] 0.0818 µM | [19] 0.0912 µM | [7] 0.0255 µM | [11] 0.771 µM | [13] 0.421 µM | [14] 0.36 µM | [15] 0.475 µM | [16] 0.249 µM | [17] 0.521 µM | [18] 0.769 µM
inactive: [3] 1.22 µM | [4] 1.17 µM | [6] 3.27 µM | [9] 2.85 µM | [20] 2.55 µM
0.379 µM: [5]

CC1C[C@]2(C[C@@H](C)C(=O)O2)OC2CC3(C)C4CCC5C(C)(C)OC(=O)CC[C@@]56C[C@@]46CC[C@]3(C)C12 (stereo partly drawn)
inactive: [1] > 100 µM | [2] > 100 µM | [3] > 100 µM | [4] > 100 µM | [19] 69.8 µM | [6] > 100 µM | [7] > 100 µM | [10] > 100 µM | [11] > 100 µM | [12] > 100 µM | [13] > 100 µM | [20] > 100 µM | [14] > 100 µM | [15] > 100 µM | [16] > 100 µM
> 100 µM: [5]

COc1cc2cc(C(=O)N3CC(CCl)c4c3cc(N(C)C)c3ccccc43)[nH]c2c(OC)c1OC (stereo not drawn)
active: [1] < 0.01 µM | [2] < 0.01 µM | [3] 0.0101 µM | [4] < 0.01 µM | [6] 0.0111 µM | [7] < 0.01 µM | [8] < 0.01 µM | [9] 0.0127 µM | [10] 0.0137 µM | [11] < 0.01 µM | [12] < 0.01 µM | [13] 0.0131 µM | [20] 0.0483 µM | [14] 0.0124 µM | [15] 0.0107 µM | [16] < 0.01 µM | [17] < 0.01 µM | [18] < 0.01 µM
< 0.0115 µM: [5]

— ChEMBL document CHEMBL1201862, “PubChem BioAssay data set” (2004)
